The results in this text go back to ChEMBL document CHEMBL1127792, “Total synthesis and biological properties of novel antineoplastic (chloromethyl)furanoindolines: an asymmetric hydroboration mediated synthesis of the alkylation subunits” (J Med Chem, 1994).

As a reminder, the IC50 is the midpoint of a concentration-inhibition curve. Low readings indicate greater potency, high ones weaker potency. One may read the inhibition in vivo as the drop in the measured response relative to a control, in per cent. High values mean a response far below the control, low ones a response near the control.

Values after ≈ are worked out from the molar mass of the structure shown.

Data set [1] relates to T222. Nature of the data set: Concentration for 50% growth inhibition relative to untreated control in the human lung epidermoid carcinoma (T222) cell line; Not active. The format is functional, cell-based.
Data set [2] concerns T222. Kind of data set: Concentration for 50% growth inhibition relative to untreated control in the human lung epidermoid carcinoma (T222) cell line. It counts as functional, cell-based.
The test system of data set [3] is Nucleic Acid. Nature of the data set: Relative concentration of compound for alkylation of w794 DNA is detected at incubation condition of 4 degrees C for 24 hr; Range is 0.01-0.006. The format is functional.
Data set [4] has as its system Mus musculus. Nature of the data set: Percent inhibition against [3H]leucine uptake at a dose of 0.05 mg/Kg in mouse bearing a T222 tumor burden. It counts as functional.
In data set [5] the test system is Mus musculus. Nature of the data set: Acute toxicity was measured as ratio of number of mice that died to the 5 mice in test group on a dose of 0.1 mg/Kg. The following applies: in vivo. The format is organism-based.
Data set [6] concerns Nucleic Acid. Kind of data set: Relative concentration of compound for alkylation of w794 DNA detected at incubation condition of 4 degrees C for 24 hr; Range is 1.0-0.2. The format is functional.
In data set [7] the test system is Mus musculus. Kind of data set: Acute toxicity was measured as ratio of number of mice that died to the 5 mice in the test group on a dose of 0.05 mg/Kg. The following applies: in vivo. The format is organism-based.
For data set [8], the system named is Mus musculus. Kind of data set: Percent inhibition against [3H]leucine uptake at a dose of 0.2 mg/Kg in a mouse bearing a T222 tumor burden. The format is functional.
Data set [9] has as its system Mus musculus. Nature of the data set: Acute toxicity was measured as ratio of number of mice that died to the 5 mice in test group on a dose of 0.2 mg/Kg. It counts as organism-based. The following applies: in vivo.
For data set [10], the system named is Mus musculus. Nature of the data set: Percent inhibition against [3H]-Leucine uptake at a dose of 0.1 mg/Kg in a mouse bearing a T222 tumor burden. The format is functional.
Data set [11] has as its system Mus musculus. Kind of data set: Acute toxicity was measured as ratio of number of mice that died to the 5 mice in test group on a dose of 0.4 mg/Kg. The format is organism-based. The following applies: in vivo.

Take `Cc1coc2c(O)cc3c(c12)C(C)(C)CN3C(=O)c1cc2cc(NC(=O)c3cc4ccccc4[nH]3)ccc2[nH]1`: in the data set with T222 [1], the IC50 entry is on record as “Not Active”.

Compound `Cc1coc2c(O)cc3c(c12)[C@H](CCl)CN3C(=O)c1cc2cc(NC(=O)c3cc4ccccc4s3)ccc2[nH]1` came in with an IC50 in the data set on T222 [2] of 0.2 ng/mL (≈ 0.36 nM).

Consider `Cc1coc2c(O)cc3c(c12)[C@H](CCl)CN3C(=O)c1cc2cc(NC(=O)c3cc4ccccc4s3)ccc2s1`, for which the midpoint of inhibition in the data set with T222 [2], the IC50, lay at 0.2 ng/mL (≈ 0.349 nM).

In the data set on Nucleic Acid [3], `Cc1coc2c(O)cc3c(c12)[C@@H](CCl)CN3C(=O)c1cc2cc(NC(=O)c3cc4ccccc4[nH]3)ccc2[nH]1` gave an Efficiency of 0.006.

In the data set with Mus musculus [4], `Cc1coc2c(O)cc3c(c12)C(CCl)CN3C(=O)c1cc2cc(NC(=O)c3cc4ccccc4[nH]3)ccc2[nH]1` (single isomer, unassigned) returned an inhibition in vivo at 0.05 mg/kg of 68%. The Toxicity in the data set with Mus musculus [5] turned out to be 0; in the data set on Mus musculus [7] it was 0; in the data set with Mus musculus [9], 1; with Mus musculus [11], 5. Besides, the Efficiency in the data set with Nucleic Acid [6] is 0.2. This compound also gave an inhibition in vivo at 0.2 mg/kg in the data set with Mus musculus [8] of 85%. Moreover, in the data set on Mus musculus [10], testing at 0.1 mg/kg gave an inhibition in vivo of 73%.

`CC[C@]1(O)C[C@@H]2CN(CCc3c([nH]c4ccccc34)[C@@](C(=O)OC)(c3cc4c(cc3OC)N(C)[C@H]3[C@@](O)(C(=O)NN)[C@H](O)[C@]5(CC)C=CCN6CC[C@]43[C@@H]65)C2)C1` [DESACETYLVINBLASTINEHYDRAZIDE] had an IC50 with T222 [2] of 3 ng/mL (≈ 3.9 nM).
